Measured values taken from patent publication US6765004B1, “Indoloazepines as vasopressin receptor antagonists” (priority 1999, dated 2004).

Experiments:
[1] = system: vasopressin-induced hypertension; assay: Reversal of vasopressin-induced hypertension in rats, intraduodenal single dose; assay type: in vivo, Male Long Evans rats; conditions: ID dose 10 mg/kg, anesthetized rats, maximum percent reversal within 60 min
Description: Reversal of Vasopressin-Induced Hypertension in Rats
The anti-hypertensive activity of compounds was screened in an anesthetized model of vasopressin-induced hypertension. Male Long Evans, normotensive rats of between 350 and 450 g in body weight were anesthetized with pentobarbital (35 mg/kg, ip) and maintained throughout the procedure with an ip infusion of 10 mg/kg/hr. Arginine vasopressin was infused at 30 ng/kg/min, iv, to induce a stable hypertensive state (ca. 50 mmHg increase in mean arterial blood pressure). Compounds of interest were administered in an ascending dose fashion and the maximum decrease in mean arterial blood pressure was recorded. An ED50 was determined from the linear portion of the dose-response relationship for each animal.
This model was modified slightly to assess the bioavailability of compounds of interest. Rather than dosing the animals iv in an ascending dose fashion, a single dose per animal was administered directly into the duodenum. The anti-hypertensive effects were then monitored for 60 min and the maximum percent reversal was calculated.

[2] = target: T1, human V-2 receptor (Homo sapiens, UniProt P30518); assay: In vitro recombinant vasopressin receptor binding assay (V-2), displacement of 3H-arginine vasopressin; parameters: dose or concentration left out as unconfirmed; conditions: cloned human V-2 receptor membranes, HEK-293
T1 construct: expressed in transfected cells; host or cells: HEK-293
T1 sequence (P30518 whole entry): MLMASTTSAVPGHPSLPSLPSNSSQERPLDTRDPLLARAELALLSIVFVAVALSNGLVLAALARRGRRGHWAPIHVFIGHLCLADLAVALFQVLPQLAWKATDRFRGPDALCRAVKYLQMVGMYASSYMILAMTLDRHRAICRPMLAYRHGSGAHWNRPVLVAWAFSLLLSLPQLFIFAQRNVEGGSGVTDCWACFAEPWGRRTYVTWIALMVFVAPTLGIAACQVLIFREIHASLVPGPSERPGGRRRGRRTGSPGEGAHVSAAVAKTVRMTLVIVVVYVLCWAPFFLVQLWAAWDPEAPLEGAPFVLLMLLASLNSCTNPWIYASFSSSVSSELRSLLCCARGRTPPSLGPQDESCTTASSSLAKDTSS
Description: (§1) In Vitro Recombinant Vasopressin Receptor Binding Assay
(§2) Compounds were assessed for their ability to displace ^3H-arginine vasopressin from the human V-1 or V-2 receptor in HEK-293 cells. […] Into wells of 96-well round bottom polypropylene plates were added buffer, test compound, membrane (containing cloned human V-1 or V-2 receptor), and ^3H-vasopressin. The reaction plates were allowed to sit at rt for 1 h. The samples were filtered through Unifilter GF/C plates presoaked in 0.3 polyethyleneimine). The plates were washed 5 times with cold physiological saline containing 0.05% Tween 20. After drying, the bottom of the filter plates were sealed and 0.025 ml of Microscint-20 was added to each filter. The top of the plate was sealed, and the plate was counted.

[3] = target: T2, human V-1 receptor (Homo sapiens, UniProt P37288); assay: In vitro recombinant vasopressin receptor binding assay (V-1), displacement of 3H-arginine vasopressin; parameters: unit of the concentration uncertain; conditions: at 0.1 (unit uncertain) as printed in cell; cloned human V-1 receptor membranes, HEK-293
T2 construct: expressed in transfected cells; host or cells: HEK-293
T2 sequence (P37288 whole entry): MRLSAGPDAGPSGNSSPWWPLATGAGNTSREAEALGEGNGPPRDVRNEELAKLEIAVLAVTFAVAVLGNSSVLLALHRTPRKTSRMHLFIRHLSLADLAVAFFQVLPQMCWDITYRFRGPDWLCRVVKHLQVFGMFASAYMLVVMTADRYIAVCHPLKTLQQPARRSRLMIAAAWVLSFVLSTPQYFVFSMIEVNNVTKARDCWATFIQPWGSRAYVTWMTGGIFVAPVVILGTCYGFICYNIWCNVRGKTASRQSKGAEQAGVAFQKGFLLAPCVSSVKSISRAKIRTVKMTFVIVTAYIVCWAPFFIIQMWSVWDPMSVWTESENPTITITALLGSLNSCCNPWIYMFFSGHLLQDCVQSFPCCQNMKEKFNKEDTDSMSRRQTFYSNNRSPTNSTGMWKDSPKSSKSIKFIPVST
Description: as §1, §2

SMILES: O=C(Nc1ccc(C(=O)N2CCCc3c[nH]c4cccc2c34)cc1)c1ccccc1-c1ccccc1 [Compound 10, 6-[4-[[(2-Biphenyl-)carbonyl]amino]benzoyl]-3,4,5,6-tetrahydro-1H-azepino[4,3,2-cd]indole]
- BP Reduction (%) [1]: 17%

SMILES: Cc1occc1C(=O)Nc1ccc(C(=O)N2CCCc3c[nH]c4cccc2c34)cc1 [Compound 12, 6-[4-[[(2-Methyl-3-furanyl)carbonyl]amino]benzoyl]-3,4,5,6-tetrahydro-1H-azepino[4,3,2-cd]indole]
- V2 Bdg (%) [2]: 24% (1.0 M)

SMILES: O=C(Nc1ccc(C(=O)N2CCCC3C(=O)Nc4cccc2c43)cc1)c1ccccc1-c1ccccc1 (centres unmarked) [Compound 15, 6-[4-[[(2-Biphenyl-)carbonyl]amino]benzoyl]-3,4,5,6-tetrahydro-1H-azepino[4,3,2-cd]-2-indolone]
- BP Reduction (%) [1]: 23%

SMILES: CN(C)Cc1[nH]c2cccc3c2c1CCCN3C(=O)c1ccc(NC(=O)c2ccccc2-c2ccccc2)cc1 [Compound 17, 6-[4-[[(2-Biphenyl-)carbonyl]amino]benzoyl]-2-(N, N-dimethylaminomethyl)-3,4,5,6-tetrahydro-1 H-azepino[4,3,2-cd]indole]
- V1 Bdg (%) [3]: 6% (0.1 M)

SMILES: O=C(Nc1ccc(C(=O)N2CCCc3c(S(=O)(=O)O)[nH]c4cccc2c34)cc1)c1ccccc1-c1ccccc1 [Compound 18, 6-[4-[[(2-Biphenyl-)carbonyl]amino]benzoyl]-3,4,5,6-tetrahydro-1H-azepino[4,3,2-cd]indole-2-sulfonic acid]
- V1 Bdg (%) [3]: 0% (0.1 M)
- BP Reduction (%) [1]: 13%

SMILES: O=C(Nc1ccc(C(=O)N2CCCc3c(S(=O)(=O)O)[nH]c4cccc2c34)c(Cl)c1)c1ccccc1-c1ccccc1 [Compound 19, 6-[4-[[(2-Biphenyl-)carbonyl]amino]2-chlorobenzoyl]-3,4,5,6-tetrahydro-1 H-azepino (4,3,2-cd]indole-2-sulfonic acid]
- V1 Bdg (%) [3]: 4% (0.1 M)
- BP Reduction (%) [1]: 23%
